Test results: US12528784B2, “Alkynyl-(heteroaryl)-carboxamide HCN1 inhibitors” (Hoffmann-La Roche Inc., priority 2019, dated 2026)

How the values were obtained:
[1] = target: T1, HCN2 (Homo sapiens, UniProt Q9UL51); experiment: HCN2 automated patch clamp current inhibition assay (Ionworks Barracuda); format: cell-based; conditions: HEK-293 cells stably expressing HCN2; current inhibition during a hyperpolarizing pulse of -100 mV
T1 construct: expressed in transfected cells
T1 sequence (Q9UL51 1-889): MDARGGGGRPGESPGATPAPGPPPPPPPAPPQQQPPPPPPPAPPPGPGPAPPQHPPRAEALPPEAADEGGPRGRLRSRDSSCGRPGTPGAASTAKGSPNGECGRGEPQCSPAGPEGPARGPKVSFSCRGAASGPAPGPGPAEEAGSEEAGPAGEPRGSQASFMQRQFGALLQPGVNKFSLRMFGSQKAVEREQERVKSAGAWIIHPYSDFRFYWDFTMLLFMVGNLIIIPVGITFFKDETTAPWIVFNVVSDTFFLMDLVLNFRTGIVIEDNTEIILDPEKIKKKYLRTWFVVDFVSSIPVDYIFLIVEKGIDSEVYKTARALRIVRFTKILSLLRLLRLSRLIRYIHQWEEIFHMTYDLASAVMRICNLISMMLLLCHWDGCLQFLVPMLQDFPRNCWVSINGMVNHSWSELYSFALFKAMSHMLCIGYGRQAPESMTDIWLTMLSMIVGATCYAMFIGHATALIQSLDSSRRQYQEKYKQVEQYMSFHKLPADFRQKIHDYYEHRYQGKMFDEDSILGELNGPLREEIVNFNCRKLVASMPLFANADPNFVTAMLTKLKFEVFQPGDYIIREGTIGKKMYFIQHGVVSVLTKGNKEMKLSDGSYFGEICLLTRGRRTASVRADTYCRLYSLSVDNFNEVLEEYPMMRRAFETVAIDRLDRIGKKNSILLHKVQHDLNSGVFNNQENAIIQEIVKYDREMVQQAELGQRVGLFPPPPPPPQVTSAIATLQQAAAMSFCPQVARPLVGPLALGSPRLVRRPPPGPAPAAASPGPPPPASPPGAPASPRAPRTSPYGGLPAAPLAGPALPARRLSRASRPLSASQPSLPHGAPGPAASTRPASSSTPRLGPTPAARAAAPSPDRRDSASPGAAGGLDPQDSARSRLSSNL
Description: (§1) In vitro, high-throughput cellular electrophysiology was employed to detect voltage- and use-dependence of compounds in single concentration screening and IC50 determination for library and medicinal chemistry profiling compounds in 384 well plates.
(§2) Cell cultures were maintained in DMEM/F12 cell growth media containing FBS and appropriate antibiotics at 37° C., 5% CO2 for a maximum of 20 passages. At a time point of 40-72 hours prior to assay, the expression of HCN protein in the cells is induced by addition of tetracyclin. Cells may be incubated at 27° C. for 2-24 hours of induction. […] Cells were harvested at 80% confluency and resuspended in extracellular buffer and added to wells. A freshly prepared Escin solution was added to intracellular buffer and applied to establish whole cell recording via perforated patch clampling by APC.
(§3) Currents through activated channels were measured directly by APC by employing hyperpolarizing voltage steps. The activation window was increased and stabilized by the addition of cell permeable Br-cAMP. Baselines were established for both use- and voltage-dependence protocols using a −30 mV holding potential and multiple test pulses at −100 mV or by 20 mV steps from −120 to 0 mV, respectively. Test compounds were added after baseline recordings followed by a 10 min incubation, voltage-dependency protocol recording, and use-dependency recording. Data was corrected for baseline and rundown (well based) and normalized for % inhibition (plate based). Five previously reported HCN inhibitors of varying potencies and selectivities and zatebradine were used for run to run and plate to plate quality controls. […] Percent inhibition was analysed at −80, −100, −120 mV of the voltage-dependency protocol and at pulse 0 and 50 of the use-dependency protocols. Selectivity was assessed against HCN2, HCN3, and HCN4 overexpressing cell lines using similar methods. As HCN4 has a slower activation than the other HCN channels, activation was extended to achieve steady state activation.

[2] = target: T2, HCN4 (Homo sapiens, UniProt Q9Y3Q4); experiment: HCN4 automated patch clamp current inhibition assay (Ionworks Barracuda); format: cell-based; conditions: HEK-293 cells stably expressing HCN4; current inhibition during a hyperpolarizing pulse of -100 mV
T2 construct: expressed in transfected cells
T2 sequence (Q9Y3Q4 1-1203): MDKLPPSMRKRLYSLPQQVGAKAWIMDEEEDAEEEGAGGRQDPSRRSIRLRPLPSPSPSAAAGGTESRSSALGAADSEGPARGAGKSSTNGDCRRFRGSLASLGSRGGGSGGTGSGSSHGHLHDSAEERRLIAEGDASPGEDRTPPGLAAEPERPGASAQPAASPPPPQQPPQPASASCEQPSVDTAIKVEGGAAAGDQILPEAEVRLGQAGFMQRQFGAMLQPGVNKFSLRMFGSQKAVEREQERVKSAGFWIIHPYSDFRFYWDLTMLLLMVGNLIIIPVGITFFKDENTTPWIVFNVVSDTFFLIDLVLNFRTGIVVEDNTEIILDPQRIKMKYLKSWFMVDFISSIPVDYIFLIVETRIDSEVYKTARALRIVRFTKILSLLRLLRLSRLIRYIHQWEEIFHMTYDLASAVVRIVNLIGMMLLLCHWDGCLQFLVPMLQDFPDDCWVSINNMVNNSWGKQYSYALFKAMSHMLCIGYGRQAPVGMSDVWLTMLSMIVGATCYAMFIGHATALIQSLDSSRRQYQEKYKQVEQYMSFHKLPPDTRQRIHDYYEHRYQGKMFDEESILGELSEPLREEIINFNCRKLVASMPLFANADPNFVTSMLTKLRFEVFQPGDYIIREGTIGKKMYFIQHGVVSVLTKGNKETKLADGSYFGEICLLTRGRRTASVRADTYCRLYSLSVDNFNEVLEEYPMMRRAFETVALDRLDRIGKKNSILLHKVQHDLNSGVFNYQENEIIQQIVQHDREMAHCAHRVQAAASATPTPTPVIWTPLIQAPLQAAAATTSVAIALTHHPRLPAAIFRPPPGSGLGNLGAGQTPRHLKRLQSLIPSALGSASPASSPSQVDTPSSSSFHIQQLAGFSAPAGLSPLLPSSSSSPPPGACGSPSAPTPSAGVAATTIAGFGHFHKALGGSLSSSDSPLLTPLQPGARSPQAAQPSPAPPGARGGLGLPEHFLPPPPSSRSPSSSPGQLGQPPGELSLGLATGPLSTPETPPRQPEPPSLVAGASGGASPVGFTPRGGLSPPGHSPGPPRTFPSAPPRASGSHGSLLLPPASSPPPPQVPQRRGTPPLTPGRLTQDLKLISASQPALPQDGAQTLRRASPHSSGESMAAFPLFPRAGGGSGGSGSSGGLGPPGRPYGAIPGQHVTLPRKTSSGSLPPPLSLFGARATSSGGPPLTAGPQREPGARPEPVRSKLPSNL
Description: as §1, §2, §3

| IC50 [1] [µM] | IC50 [2] [µM] | Structure (SMILES) |
| --- | --- | --- |
| > 40 | > 40 | Cc1ccc(-n2c(C(N)=O)nc(C#Cc3ccnc(Cl)c3C)c2C)cn1 [Example 1, 4-((2-Chloro-3-methylpyridin-4-yl)ethynyl)-5-methyl-1-(6-methylpyridin-3-yl)-1H-imidazole-2-carboxamide] |
| > 40 | > 40 | Cc1ccc(-n2c(C(N)=O)nc(C#Cc3ccnc(Cl)c3F)c2C)cn1 [Example 2, 4-((2-Chloro-3-fluoropyridin-4-yl)ethynyl)-5-methyl-1-(6-methylpyridin-3-yl)-1H-imidazole-2-carboxamide] |
| > 40 | > 40 | Cc1ccc(-n2c(C(N)=O)nc(C#Cc3csc(Cl)c3)c2C)cn1 [Example 3, 4-[2-(5-Chlorothiophen-3-yl)ethynyl]-5-methyl-1-(6-methylpyridin-3-yl)imidazole-2-carboxamide] |
| 30.6 | > 40 | Cc1ccc(-n2c(C(N)=O)nc(C#Cc3cccc(Cl)c3)c2C)cn1 [Example 4, 4-[2-(3-Chlorophenyl)ethynyl]-5-methyl-1-(6-methyl-3-pyridyl)imidazole-2-carboxamide] |
| > 40 | > 40 | Cc1ccc(-n2c(C(N)=O)nc(C#Cc3cccc(C#N)c3)c2C)cn1 [Example 5, 4-((3-Cyanophenyl)ethynyl)-5-methyl-1-(6-methylpyridin-3-yl)-1H-imidazole-2-carboxamide] |
| > 40 | > 40 | Cc1ccc(-n2c(C(N)=O)nc(C#Cc3ccnc(Cl)c3)c2C)cn1 [Example 6, 4-(2-Chloro-pyridin-4-ylethynyl)-5-methyl-1-(6-methyl-pyridin-3-yl)-1H-imidazole-2-carboxylic Acid Amide] |
| > 40 | > 40 | COc1cccc(C#Cc2nc(C(N)=O)n(-c3ccc(C)nc3)c2C)c1 [Example 8, 4-((3-Methoxyphenyl)ethynyl)-5-methyl-1-(6-methylpyridin-3-yl)-1H-imidazole-2-carboxamide] |
| > 40 | > 40 | Cc1cccc(C#Cc2nc(C(N)=O)n(-c3ccc(C)nc3)c2C)c1 [Example 10, 5-Methyl-1-(6-methylpyridin-3-yl)-4-(m-tolylethynyl)-1H-imidazole-2-carboxamide] |
| > 40 | > 40 | Cc1cnc(-n2c(C(N)=O)nc(C#Cc3ccnc(Cl)c3C)c2C)cn1 [Example 23, 4-[2-(2-Chloro-3-methyl-4-pyridyl)ethynyl]-5-methyl-1-(5-methylpyrazin-2-yl)imidazole-2-carboxamide] |
| > 40 | > 40 | Cc1c(C#Cc2nc(C(N)=O)n(-c3ccc(Cl)nc3)c2C)ccnc1Cl [Example 26, 4-[2-(2-Chloro-3-methyl-4-pyridyl)ethynyl]-1-(6-chloro-3-pyridyl)-5-methyl-imidazole-2-carboxamide] |
| > 40 | > 40 | COc1ccc(-n2c(C(N)=O)nc(C#Cc3ccnc(Cl)c3C)c2C)cn1 [Example 27, 4-[2-(2-Chloro-3-methyl-4-pyridyl)ethynyl]-1-(6-methoxy-3-pyridyl)-5-methyl-imidazole-2-carboxamide] |
| > 40 | > 40 | Cc1ccc(-n2c(C(N)=O)nc(C#Cc3ccnc(Cl)c3C)c2C)nc1 [Example 28, 4-[2-(2-Chloro-3-methyl-4-pyridyl)ethynyl]-5-methyl-1-(5-methyl-2-pyridyl)imidazole-2-carboxamide] |
| > 40 | > 40 | Cc1ccc(-n2c(C(N)=O)cc(C#Cc3ccnc(Cl)c3)c2C)cn1 [Example 31, 4-[2-(2-Chloro-4-pyridyl)ethynyl]-5-methyl-1-(6-methyl-3-pyridyl)pyrrole-2-carboxamide] |
| > 40 | > 40 | Cc1ccc(-c2c(C(N)=O)nc(C#Cc3ccnc(Cl)c3)n2C)cn1 [Example 32, 2-[2-(2-Chloro-4-pyridyl)ethynyl]-1-methyl-5-(6-methyl-3-pyridyl)imidazole-4-carboxamide] |
| > 40 | > 40 | Cc1ccc(-n2c(C(N)=O)nc(C#Cc3ccnc(Cl)c3)c2C)cc1 [Example 38, 4-[2-(2-Chloro-4-pyridyl)ethynyl]-5-methyl-1-(p-tolyl)imidazole-2-carboxamide] |
| > 40 | > 40 | Cc1c(C#Cc2ccnc(Cl)c2)nc(C(N)=O)n1-c1ccc(Cl)cc1 [Example 39, 1-(4-Chlorophenyl)-4-((2-chloropyridin-4-yl)ethynyl)-5-methyl-1H-imidazole-2-carboxamide] |
| > 40 | > 40 | NC(=O)c1nc(C#Cc2ccnc(Cl)c2)cn1-c1ccc(F)cc1 [Example 42, 4-(2-Chloro-pyridin-4-ylethynyl)-1-(4-fluoro-phenyl)-1H-imidazole-2-carboxylic Acid Amide] |
